The values below come from paper PMC9848287, “Novel thiazolone-benzenesulphonamide inhibitors of human and bacterial carbonic anhydrases” (Journal of Enzyme Inhibition and Medicinal Chemistry, 2023).

The term Ki denotes the dissociation constant of the complex between target and ligand, obtained from inhibition or displacement. High values mean lower affinity, low ones higher affinity.

Holding throughout (experiment): stopped-flow CO2 hydrase assay
The target of one test is T1, hCA II (Homo sapiens, UniProt P00918).
T1 construct: gene CA2; recombinant, obtained in-house
The test is classed as biochemical. The text has this: stopped-flow CO2 hydrase assay on hCA II

The next test addresses T2, MscCAβ (Mammaliicoccus sciuri, UniProt A0AAJ4SIE8).
T2 construct: gene OWO77_14055; recombinant, obtained in-house
T2 sequence (A0AAJ4SIE8 1-189): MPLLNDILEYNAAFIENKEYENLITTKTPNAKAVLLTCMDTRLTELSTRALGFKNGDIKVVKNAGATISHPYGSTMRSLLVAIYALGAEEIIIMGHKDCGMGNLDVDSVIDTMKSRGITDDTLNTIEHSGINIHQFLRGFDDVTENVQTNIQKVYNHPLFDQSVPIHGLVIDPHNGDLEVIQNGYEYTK
The test is classed as biochemical. As to conditions: CO2 hydration, […] TRIS pH […] Na2SO4, […] min preincubation at room temperature.

A further test concerns the target T3, StCA1.
T3 construct: recombinant, obtained in-house
The test is classed as biochemical, Salmonella enterica subsp. enterica serovar Typhimurium. The note with it: CO2 hydration, […] TRIS pH […] Na2SO4, […] min preincubation at room temperature.

For another test, the target named is T4, StCA2 (Salmonella enterica, UniProt O30898).
T4 construct: gene mig-5; recombinant, obtained in-house
T4 sequence (O30898 41-246): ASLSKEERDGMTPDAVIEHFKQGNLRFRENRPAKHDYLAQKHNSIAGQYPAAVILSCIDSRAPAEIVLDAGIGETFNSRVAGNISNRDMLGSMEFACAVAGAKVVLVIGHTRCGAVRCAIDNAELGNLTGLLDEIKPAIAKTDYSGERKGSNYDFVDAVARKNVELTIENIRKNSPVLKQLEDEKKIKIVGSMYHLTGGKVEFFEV
The test is classed as biochemical. The note with it: CO2 hydration, […] TRIS pH […] Na2SO4, […] min preincubation at room temperature.

Another test concerns the target T5, hCA I (Homo sapiens, UniProt P00915).
T5 construct: gene CA1; recombinant, obtained in-house
The test is classed as biochemical. The text has this:
stopped-flow CO2 hydrase assay on hCA I

Another test addresses T6, hCA VII (Homo sapiens, UniProt P43166).
T6 construct: gene CA7; recombinant, obtained in-house
The class given is biochemical. The text has this: stopped-flow CO2 hydrase assay on hCA VII

T5 sequence (P00915 2-261): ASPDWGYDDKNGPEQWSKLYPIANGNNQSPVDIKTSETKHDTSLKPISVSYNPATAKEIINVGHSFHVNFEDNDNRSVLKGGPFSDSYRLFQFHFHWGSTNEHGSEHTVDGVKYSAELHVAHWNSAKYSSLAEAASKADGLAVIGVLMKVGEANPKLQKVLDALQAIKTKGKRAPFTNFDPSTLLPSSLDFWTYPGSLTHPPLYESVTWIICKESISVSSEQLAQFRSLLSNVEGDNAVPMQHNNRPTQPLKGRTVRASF
T6 sequence (P43166 whole entry): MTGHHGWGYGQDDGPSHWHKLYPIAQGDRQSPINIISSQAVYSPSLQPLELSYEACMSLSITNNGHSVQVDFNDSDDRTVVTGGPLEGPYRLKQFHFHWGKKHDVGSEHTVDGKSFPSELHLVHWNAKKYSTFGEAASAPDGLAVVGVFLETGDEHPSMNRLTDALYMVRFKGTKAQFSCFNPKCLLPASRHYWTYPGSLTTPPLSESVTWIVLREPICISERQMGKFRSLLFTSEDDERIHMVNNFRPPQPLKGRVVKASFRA

Take `CCCCC1SC(Nc2ccc(S(N)(=O)=O)cc2)=NC1=O` (racemic) [4f, 4-((5-Butyl-4-oxo-4,5-dihydrothiazol-2-yl)amino)benzenesulphonamide]: the Ki on hCA II worked out at 3.2 nM; on MscCAβ, 2420 nM; at StCA1, 72.4 nM; on StCA2, 904 nM; on hCA I, 75 nM; at hCA VII, 6.2 nM.
On to `CC1SC(Nc2ccc(S(N)(=O)=O)cc2)=NC1=O` (racemic) [4b, 4-((5-Methyl-4-oxo-4,5-dihydrothiazol-2-yl)amino)benzenesulphonamide], for which the Ki at hCA II turned out to be 4.3 nM; at MscCAβ it was 481 nM; at StCA1, 89.9 nM; on StCA2, 538 nM; at hCA I, 31.5 nM; on hCA VII, 0.9 nM.
With `CCC1SC(Nc2ccc(S(N)(=O)=O)cc2)=NC1=O` (racemic) [4c, 4-((5-Ethyl-4-oxo-4,5-dihydrothiazol-2-yl)amino)benzenesulphonamide], the Ki is 3.8 nM on hCA II; 411 nM on MscCAβ; 86.1 nM on StCA1; 481 nM at StCA2; 66.6 nM on hCA I; 1.2 nM at hCA VII.
On to `CCCCCCC1SC(Nc2ccc(S(N)(=O)=O)cc2)=NC1=O` (racemic) [4g, 4-((5-Hexyl-4-oxo-4,5-dihydrothiazol-2-yl)amino)benzenesulphonamide], for which the Ki at hCA II was 13.7 nM; at MscCAβ, 4030 nM; on StCA1, 83.6 nM; at StCA2 it was 4880 nM; on hCA I, 637 nM; on hCA VII it was 14.6 nM.
As for `NS(=O)(=O)c1ccc(NC2=NC(=O)C(c3ccccc3)S2)cc1` (racemic) [4h, 4-((4-Oxo-5-phenyl-4,5-dihydrothiazol-2-yl)amino)benzenesulphonamide], the Ki was 1.3 nM at hCA II; 1060 nM on MscCAβ; 163 nM on StCA1; 797 nM on StCA2; 90.4 nM on hCA I; 7.3 nM on hCA VII.
Regarding `NS(=O)(=O)c1ccc(NC2=NC(=O)CS2)cc1` [4a, 4-((4-Oxo-4,5-dihydrothiazol-2-yl)amino)benzenesulphonamide], the Ki was determined as 787 nM at MscCAβ, 82.4 nM on StCA1, 275 nM on StCA2 and 1.4 nM on hCA VII.
As to `NS(=O)(=O)c1ccc(NC2=NC(=O)C(F)S2)cc1` (racemic) [4j, 4-((5-Fluoro-4-oxo-4,5-dihydrothiazol-2-yl)amino)benzenesulphonamide], the Ki turned out to be 3.7 nM at hCA II; 849 nM at MscCAβ; 90.9 nM on StCA1; 956 nM at StCA2; 138 nM on hCA I; 1.9 nM at hCA VII.
Take `CCCC1SC(Nc2ccc(S(N)(=O)=O)cc2)=NC1=O` (racemic) [4d, 4-((4-Oxo-5-propyl-4,5-dihydrothiazol-2-yl)amino)benzenesulphonamide]: the Ki at hCA II came to 2.3 nM; at MscCAβ, 73.6 nM; at StCA1 it was 83.3 nM; at StCA2, 913 nM; on hCA I, 70.7 nM; on hCA VII, 2 nM.
As to `NS(=O)(=O)c1ccc(NC2=NC(=O)C(CCBr)S2)cc1` (racemic) [4i, 4-((5-(2-Bromoethyl)-4-oxo-4,5-dihydrothiazol-2-yl)amino)benzenesulphonamide], the inhibitory constant (Ki) on hCA II stood at 2.2 nM; at MscCAβ it was 925 nM; at StCA1 it was 69.2 nM; on StCA2, 515 nM; on hCA I, 74.6 nM; on hCA VII it was 2.1 nM.
Consider `CC(C)C1SC(Nc2ccc(S(N)(=O)=O)cc2)=NC1=O` (racemic) [4e, 4-((5-Isopropyl-4-oxo-4,5-dihydrothiazol-2-yl)amino)benzenesulphonamide], for which the Ki on hCA II stood at 7.3 nM; at MscCAβ, 701 nM; on StCA1 it was 81.1 nM; on StCA2 it was 867 nM; at hCA I, 85.4 nM; on hCA VII, 7.5 nM.
